Results: PubChem BioAssay AID1549 (Sanford-Burnham Center for Chemical Genomics, 2009)
Active and inactive are the calls of the source. How the calls were made is not given here.

Biological target: Influenza A virus M2 proton channel (A/TW/4845/1999 H1N1)
Experiment: M2 proton channel binding, NMR based, influenza A virus H1N1 strain (AID 1549)
Settings: NMR binding screen, M2 protein

| SMILES | Kd |
| --- | --- |
| c1ccc(Cc2nnc3sc(-c4ccncc4)nn23)cc1 | > 4 mM (inactive) |
| O=C(N1CCOCC1)N1CCN(c2ccccn2)CC1 | > 4 mM (inactive) |
| Cc1n[nH]c(C)c1N | > 4 mM (inactive) |
| Cc1cccc(-n2c(N)cc(=O)[nH]c2=S)c1 | > 4 mM (inactive) |
| NC[C@H]1O[C@H](O[C@H]2[C@H](O)[C@@H](O[C@H]3O[C@H](CO)[C@@H](O)[C@H](N)[C@H]3O)[C@H](N)C[C@@H]2N)[C@H](N)[C@@H](O)[C@@H]1O | > 4 mM (inactive) |
| COc1ccc(C(=O)/C=C2\NC(=S)NC2=O)cc1 | > 4 mM (inactive) |
| Cc1nnc(SCC(=O)NCc2ccccc2)[nH]c1=O | > 4 mM (inactive) |
| Fc1ccc(N2CCNCC2)cc1 | > 4 mM (inactive) |
| C=C1C2CC[C@@]3(C)[C@H](c4ccoc4)OC(=O)C[C@]13O[C@H]1CC(=O)C(C)(C)[C@H](C(O)C(=O)OC)[C@@]21C (some centres undefined) | > 4 mM (inactive) |
| COC(=O)C(O)[C@@H]1C2(C)C(=O)[C@@H](CC3=C4CC(=O)O[C@@H](c5ccoc5)[C@]4(C)CCC32)[C@H](OC(C)=O)C1(C)C (some centres undefined) | > 4 mM (inactive) |
| C=CC(C)(O)CC/C=C(\C)CCC=C(C)C (centres undefined) | > 4 mM (inactive) |
| O=C(O)c1cccc(-n2cccc2)c1 | > 4 mM (inactive) |
| CCOC(=O)c1c(C)cc(O)c(C=O)c1O | > 4 mM (inactive) |
| Nc1cc(C(F)(F)F)ccc1N1CCOCC1 | > 4 mM (inactive) |
| Nc1ccc2c(c1)CCC2=O | > 4 mM (inactive) |
| Cn1c(SCCC(=O)O)nnc1-c1cccnc1 | > 4 mM (inactive) |
| CC(=O)Nc1ccc(-c2nc(C)c(C(C)=O)n2O)cc1 | > 4 mM (inactive) |
| Cc1nc(NC2=NCCC(=O)N2)nc2ccccc12 | > 4 mM (inactive) |
| Cc1nnc2ccc(N3CCCC3)nn12 | > 4 mM (inactive) |
| COc1cnn(Cc2ccccc2)c(=O)c1Cl | > 4 mM (inactive) |
| Nc1nsc(-c2ccccc2)n1 | > 4 mM (inactive) |
| Cc1nn(C)c2sc(C(=O)O)cc12 | > 4 mM (inactive) |
| CC(=O)NC(=S)Nc1ccc(N(C)C(C)=O)cc1 | > 4 mM (inactive) |

| SMILES | Kd |
| --- | --- |
| Cc1cc(C(=O)N2CCN(S(C)(=O)=O)CC2)cs1 | > 4 mM (inactive) |
| COc1c2ccoc2c(OC)c2oc(=O)ccc12 | > 4 mM (inactive) |
| Cc1nc2ccccc2c(=O)n1-c1cccc(O)c1 | > 4 mM (inactive) |
| NC(=O)C1CCN(C2CC(=O)NC2=O)CC1 (centres undefined) | > 4 mM (inactive) |
| COC(=O)[C@]1(C)CC[C@]2(C)CC[C@]3(C)C4=CC=C5C(=CC(=O)C(O)=C5C)[C@]4(C)CC[C@@]3(C)[C@@H]2C1 | > 4 mM (inactive) |
| Cc1nc2c(n1O)CCc1c-2no[n+]1[O-] | > 4 mM (inactive) |
| CCOC(=O)c1cnc2cc(C)nn2c1C | > 4 mM (inactive) |
| Cn1cnc2c(Cl)ncnc21 | > 4 mM (inactive) |
| NC1=NC(=O)/C(=C/c2cccs2)S1 | > 4 mM (inactive) |
| O=C(O)C1COc2ccccc2C1 (centres undefined) | > 4 mM (inactive) |
| COc1ccc(Cl)cc1-c1nc(-c2ccncc2)no1 | > 4 mM (inactive) |
| COc1ccc(N2C(=N)C(C)(C)NC2=O)cc1 | > 4 mM (inactive) |
| COc1c(C(C)C)oc2cc3oc(=O)ccc3cc12 | > 4 mM (inactive) |
| COc1ccc2nc(NC(=O)c3cnccn3)sc2c1 | > 4 mM (inactive) |
| CC(=O)c1cc2c(cc1O)OC(C)(C)C=C2 | > 4 mM (inactive) |
| CC(=O)Nc1ccc(Nc2nnc(C)c(=O)[nH]2)cc1 | > 4 mM (inactive) |
| CC(=O)Nc1ccc(-c2cn3ccsc3n2)cc1 | > 4 mM (inactive) |
| O=C(Nc1ccccc1N1CCCC1)c1cccnc1 | > 4 mM (inactive) |
| O=C(O)c1cccc2c1OCCCO2 | > 4 mM (inactive) |
| N#CC(O[C@@H]1O[C@H](CO[C@@H]2O[C@H](CO)[C@@H](O)[C@H](O)[C@H]2O)[C@@H](O)[C@H](O)[C@H]1O)c1ccccc1 (some centres undefined) | > 4 mM (inactive) |
| COc1ccc2c3c1O[C@H]1C[C@@H](O)C=C[C@@]31CCN(C)C2 | > 4 mM (inactive) |
| Cc1nn(C)c(N2CCOCC2)c1N | > 4 mM (inactive) |
| CC(NC(=O)c1ccco1)C1CCCO1 (centres undefined) | > 4 mM (inactive) |

| SMILES | Kd |
| --- | --- |
| COc1cc(OC)c2c(OC)c(-c3ccc4c(c3)OCO4)c(=O)oc2c1 | > 4 mM (inactive) |
| CCC(C)C(=O)O[C@H]1[C@H](O)C2C(CN3CC(C)CCC3[C@@]2(C)O)C2C[C@]34O[C@]5(O)C(OC(=O)C(C)(O)C(C)O)CC[C@@]3(C)C5C(OC(C)=O)[C@@H](OC(C)=O)C4[C@@]21O (some centres undefined) | > 4 mM (inactive) |
| CCOc1cc(C)c(Cl)cc1S(=O)(=O)N(C)C | > 4 mM (inactive) |
| CCC(=O)NC(=S)Nc1ccc(O)cc1 | > 4 mM (inactive) |
| O=C(CN1CCOCC1)Nc1nccs1 | > 4 mM (inactive) |
| c1coc(CNc2ncnc3nc[nH]c23)c1 | > 4 mM (inactive) |
| Cc1cc(C)n(C/C=C/Cn2nc(C)cc2C)n1 | > 4 mM (inactive) |
| Cc1sc2nc(-c3ccco3)oc(=O)c2c1C | > 4 mM (inactive) |
| NS(=O)(=O)c1ccc(NC(=O)c2ccccc2F)cc1 | > 4 mM (inactive) |
| CCOc1ccc(-c2c(=O)n(O)c3ccccc3[n+]2[O-])cc1 | > 4 mM (inactive) |
| C=C1CCC(C2CC(=O)OC2=O)C(=O)CCC2C1CC2(C)C (centres undefined) | > 4 mM (inactive) |
| Nc1ccc2[nH]ncc2c1 | > 4 mM (inactive) |
| Cc1cc(CN2C(=O)c3ccccc3C2=O)on1 | > 4 mM (inactive) |
| CCn1c(-c2ccccc2)n[nH]c1=S | > 4 mM (inactive) |
| COc1nc(N2CCOCC2)nc(N)c1[N+](=O)[O-] | > 4 mM (inactive) |
| CN(C)c1nc(N2CCOCC2)c2cnn(C)c2n1 | > 4 mM (inactive) |
| Cc1noc(C)c1C(=O)Nc1ccccn1 | > 4 mM (inactive) |
| O=c1cnnc(Nc2ccc(O)cc2)[nH]1 | > 4 mM (inactive) |
| Nc1cccc(S(=O)(=O)N2CCCCC2)c1 | > 4 mM (inactive) |
| OCc1ccc2nonc2c1 | > 4 mM (inactive) |
| COc1cc(C(C)=O)ccc1OC(=O)N1CCOCC1 | > 4 mM (inactive) |
| Cc1[nH]c2ccccc2c1CN(C)C | > 4 mM (inactive) |
| OCc1sccc1-n1cccc1 | > 4 mM (inactive) |

| SMILES | Kd |
| --- | --- |
| Cc1cc(C(=O)NC(C)c2ccncc2)no1 (centres undefined) | > 4 mM (inactive) |
| CC(=O)Nc1nc(C)c(C(C)=O)s1 | > 4 mM (inactive) |
| COc1cc(OC)c2c(=O)c(-c3ccccc3)coc2c1 | > 4 mM (inactive) |
| NC(=O)c1ccc(-c2csnn2)cc1 | > 4 mM (inactive) |
| Cc1cc(C(F)(F)F)nn1CC(N)=O | > 4 mM (inactive) |
| COc1ccc(Cl)cc1NC(=O)C(N)=O | > 4 mM (inactive) |
| Cc1cc(C)n2nc(Cc3ccccc3)nc2n1 | > 4 mM (inactive) |
| O=C(Nn1cnnc1)c1ccccc1Cl | > 4 mM (inactive) |
| CCCSc1nnc2[nH]c(=O)cc(N)n12 | > 4 mM (inactive) |
| COCC(=O)Nc1cccc2ccccc12 | > 4 mM (inactive) |
| CC(=O)Nc1nc(-c2cccs2)cs1 | > 4 mM (inactive) |
| O=C(NCc1ccco1)c1nc2ncccn2n1 | > 4 mM (inactive) |
| COc1c2c(c(CC=C(C)C)c3oc(=O)c(-c4ccc(O)cc4)c(O)c13)OC(C)(C)C=C2 | > 4 mM (inactive) |
| CCn1ncc(Cl)c1C(=O)Nc1ccncc1 | > 4 mM (inactive) |
| Cc1nc(SCC#N)c2c3c(sc2n1)CCC3 | > 4 mM (inactive) |
| O=C(Nc1cccc2ncccc12)c1cccnc1 | > 4 mM (inactive) |
| O=C(Nc1ccccc1Cl)c1cnccn1 | > 4 mM (inactive) |
| Nc1nc2ncc(=O)[nH]c2c(=O)[nH]1 | > 4 mM (inactive) |
| O=C(O)c1ccc(Oc2ccccc2)nc1 | > 4 mM (inactive) |
| O=S1(=O)CCC(NCc2ccccc2)C1 (centres undefined) | > 4 mM (inactive) |
| COc1c2ccoc2cc2oc(=O)ccc12 | > 4 mM (inactive) |
| c1cc2n(c1)CCNC2c1ccncc1 (centres undefined) | > 4 mM (inactive) |
| O=C(O)C1(O)C[C@@H](O)C(O)[C@H](O)C1 (some centres undefined) | > 4 mM (inactive) |

| SMILES | Kd |
| --- | --- |
| O=c1[nH]cc(N=Cc2ccc(F)cc2)c(=O)[nH]1 | > 4 mM (inactive) |
| Oc1ccccc1N1CCCC1 | > 4 mM (inactive) |
| CC(C)Oc1ccc(C2CC(=O)NNC2=O)cc1 (centres undefined) | > 4 mM (inactive) |
| Fc1cccc(Cl)c1CN1CCCNCC1 | > 4 mM (inactive) |
| C=C1C([C@]2(C)C(CC(=O)OC)[C@@](C)(COC(C)=O)OC(=O)C[C@@H]2OC(C)=O)[C@@H](OC=O)[C@H](OC(=O)C(O)C(C)CC)[C@@]2(C)[C@H](c3ccoc3)CC(=O)C12O (some centres undefined) | > 4 mM (inactive) |
| COC(=O)Nc1nnc(-c2ccncc2)s1 | > 4 mM (inactive) |
| O=c1cc(-c2ccc(O)cc2)oc2cc(O[C@@H]3O[C@H](CO)[C@@H](O)[C@H](O)[C@H]3O[C@@H]3OC[C@](O)(CO)[C@H]3O)cc(O)c12 | > 4 mM (inactive) |
| NC1=NC(=O)/C(=C\c2ccco2)S1 | > 4 mM (inactive) |
| Nc1cccc(C(=O)c2ccccc2)c1 | > 4 mM (inactive) |
| CC(C)(O)CC[C@@H](O)[C@](C)(O)C1CC[C@@]2(O)C3=CC(=O)C4C[C@@H](O)[C@@H](O)C[C@]4(C)C3CC[C@]12C (some centres undefined) | > 4 mM (inactive) |
| CC(=O)N1CCN(c2ccc(N)cc2)CC1 | > 4 mM (inactive) |
| O=[N+]([O-])c1cccc(-c2c[n+](=O)c3c(n2[O-])CCC3)c1 | > 4 mM (inactive) |
| Cc1ccccc1CSc1nnc(C)n1N | > 4 mM (inactive) |
| Cc1cc(NC(=O)CSc2ccnc(=O)[nH]2)no1 | > 4 mM (inactive) |
| O=C(Nc1nnc(-c2ccncc2)o1)c1cccs1 | > 4 mM (inactive) |
| Nc1ncnc2c1ncn2[C@@H]1O[C@H](CO)[C@@H](O)[C@H]1O | > 4 mM (inactive) |
| S=c1nc2c(n[nH]1)[nH]c1ccccc12 | > 4 mM (inactive) |
| Nc1n[nH]c(=S)n1-c1ccccc1 | > 4 mM (inactive) |
| CC(=O)Cc1nsc(NC(=O)c2ccc(C)cc2)n1 | > 4 mM (inactive) |
| CC(=O)c1ccc(Cc2cnc(N)s2)cc1 | > 4 mM (inactive) |
| O=C(O)CC1Sc2ccccc2NC1=O (centres undefined) | > 4 mM (inactive) |
| OC1CCN(c2nccc(C(F)(F)F)n2)CC1 | > 4 mM (inactive) |
